# Assay results: PubChem BioAssay AID330 (DTP/NCI, 2004)
# Values joined by “and” are separate entries in the source; they are usually repeats but may differ in a detail not shown here. Equal entries are not always repeated. Toxic doses and inconclusive results are not listed.
# Test system: P388 leukemia ip, CD2F1 mice, survival T/C
# Assay: NCI In Vivo Anticancer Drug Screen. Data for tumor model P388 Leukemia (intraperitoneal) in CD2F1 (CDF1) mice
# Conditions: endpoint: median survival time, higher = longer survival
# Outline: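 Mice carrying the transplanted tumor received test compound or vehicle. Survival was recorded in each group, and the value is the treated-group measurement divided by that of the vehicle-treated control group.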
# [1] = dose: 60.0 mg/kg/injection, schedule: Q01DX005 (ip), vehicle: saline with Tween-80
# [2] = dose: 120.0 mg/kg/injection, schedule: Q01DX005 (ip), vehicle: saline with Tween-80
# [3] = dose: 240.0 mg/kg/injection, schedule: Q01DX005 (ip), vehicle: saline with Tween-80
# [4] = dose: 50.0 mg/kg/injection, schedule: Q01DX009 (ip), vehicle: Klucel (hydroxypropylcellulose) (HPC)
# [5] = dose: 100.0 mg/kg/injection, schedule: Q01DX009 (ip), vehicle: Klucel (hydroxypropylcellulose) (HPC)
# [6] = dose: 200.0 mg/kg/injection, schedule: Q01DX009 (ip), vehicle: Klucel (hydroxypropylcellulose) (HPC)
# [7] = dose: 12.5 mg/kg/injection, schedule: Q01DX009 (ip), vehicle: saline
# [8] = dose: 25.0 mg/kg/injection, schedule: Q01DX009 (ip), vehicle: saline
smiles,measurement,setting,value
O=C(c1ccccc1)N1OCCc2ccccc21,T/C,[1],100 % of control
same,T/C,[2],104 % of control
same,T/C,[3],96 % of control
O=C1CCC2C(=O)OCC12 (stereo not given),T/C,"dose: 50.0 mg/kg/injection, schedule: Q04DX002 (ip), vehicle: saline",99 % of control
same,T/C,"dose: 100.0 mg/kg/injection, schedule: Q04DX002 (ip), vehicle: saline",101 % of control
same,T/C,"dose: 200.0 mg/kg/injection, schedule: Q04DX002 (ip), vehicle: saline",94 % of control
same,T/C,"dose: 400.0 mg/kg/injection, schedule: Q04DX002 (ip), vehicle: saline",100 % of control
CN(C)c1ccc2[nH]c3ccccc3c2c1,T/C,[1],107 % of control
same,T/C,[2],108 % of control
same,T/C,[3],121 % of control
ClCOc1cc(Cl)c(OCCl)cc1Cl,T/C,[4],116 % of control
same,T/C,[5],113 % of control
same,T/C,[6],101 % of control
O=CC1CO1 (stereo not given),T/C,[7],109 % of control
same,T/C,"dose: 12.5 mg/kg/injection, schedule: Q04DX003 (ip), vehicle: saline",112 % of control
same,T/C,[8],118 % of control
same,T/C,"dose: 25.0 mg/kg/injection, schedule: Q04DX003 (ip), vehicle: saline",104 % of control
same,T/C,"dose: 50.0 mg/kg/injection, schedule: Q04DX003 (ip), vehicle: saline",116 % of control
CCOc1ccc(NC2OC(CO)C(O)C(O)C2NC(C)=O)cc1 (stereo not given),T/C,"dose: 50.0 mg/kg/injection, schedule: Q01DX005 (ip), vehicle: saline with Tween-80",105 % of control
same,T/C,"dose: 100.0 mg/kg/injection, schedule: Q01DX005 (ip), vehicle: saline with Tween-80",101 % of control
same,T/C,"dose: 200.0 mg/kg/injection, schedule: Q01DX005 (ip), vehicle: saline with Tween-80",96 % of control
N#Cc1ncc(C[n+]2ccccc2)nc1N,T/C,"dose: 10.0 mg/kg/injection, schedule: Q01DX009 (ip), vehicle: saline",109 % of control
same,T/C,"dose: 20.0 mg/kg/injection, schedule: Q01DX009 (ip), vehicle: saline",107 % of control
same,T/C,"dose: 40.0 mg/kg/injection, schedule: Q01DX009 (ip), vehicle: saline",100 % of control
O=C1C(CN2CCCCC2)=C(O)C(c2ccccc2)N1c1ccccc1 (stereo not given),T/C,[1],96 % of control
same,T/C,[2],95 % of control
same,T/C,[3],97 % of control
COc1ccc(CC(=O)c2ccc(OC)cc2O)cc1,T/C,"dose: 100.0 mg/kg/injection, schedule: Q01DX001 (ip), vehicle: saline with Tween-80",103 % of control
same,T/C,"dose: 200.0 mg/kg/injection, schedule: Q01DX001 (ip), vehicle: saline with Tween-80",104 % of control
same,T/C,"dose: 400.0 mg/kg/injection, schedule: Q01DX001 (ip), vehicle: saline with Tween-80",101 % of control
O=C1CC(C2OCOC3COCOC32)CC(=O)N1 (stereo not given),T/C,"dose: 60.0 mg/kg/injection, schedule: Q01DX005 (ip), vehicle: Klucel (hydroxypropylcellulose) (HPC)",111 % of control
same,T/C,"dose: 120.0 mg/kg/injection, schedule: Q01DX005 (ip), vehicle: Klucel (hydroxypropylcellulose) (HPC)",109 % of control
same,T/C,"dose: 240.0 mg/kg/injection, schedule: Q01DX005 (ip), vehicle: Klucel (hydroxypropylcellulose) (HPC)",100 % of control
CCC1CN2CCc3cc(OC)c(OC)cc3C2C/C1=C/C(=O)O (stereo not given),T/C,"dose: 50.0 mg/kg/injection, schedule: Q01DX009 (ip), vehicle: suspension in saline",95 % of control
same,T/C,"dose: 100.0 mg/kg/injection, schedule: Q01DX009 (ip), vehicle: suspension in saline",92 % of control
CCOC(=O)c1ccccn1,T/C,[7],95 % of control
same,T/C,[8],98 % of control
same,T/C,"dose: 50.0 mg/kg/injection, schedule: Q01DX009 (ip), vehicle: saline",101 % of control
same,T/C,"dose: 100.0 mg/kg/injection, schedule: Q01DX009 (ip), vehicle: saline",100 % of control
COCCOCCOCCOCCOC(=O)CCn1cc(F)c(=O)[nH]c1=O,T/C,"dose: 45.0 mg/kg/injection, schedule: Q04DX002 (ip), vehicle: saline",99 % of control
same,T/C,"dose: 90.0 mg/kg/injection, schedule: Q04DX002 (ip), vehicle: saline",106 % of control
same,T/C,"dose: 180.0 mg/kg/injection, schedule: Q04DX002 (ip), vehicle: saline",101 % of control
same,T/C,"dose: 360.0 mg/kg/injection, schedule: Q04DX002 (ip), vehicle: saline",108 % of control
COC(=O)/C=C1\C(=O)OC(C)(C)C1C (stereo not given),T/C,[4],96 % of control
same,T/C,[5],98 % of control
same,T/C,[6],103 % of control
O/N=C/c1c(Cl)nc2sccn12,T/C,"dose: 50.0 mg/kg/injection, schedule: Q01DX001 (ip), vehicle: Klucel (hydroxypropylcellulose) (HPC)",100 % of control
same,T/C,"dose: 100.0 mg/kg/injection, schedule: Q01DX001 (ip), vehicle: Klucel (hydroxypropylcellulose) (HPC)",100 % of control and 91 % of control
same,T/C,"dose: 200.0 mg/kg/injection, schedule: Q01DX001 (ip), vehicle: Klucel (hydroxypropylcellulose) (HPC)",89 % of control and 97 % of control
CNC(=O)OCc1c(COC(=O)NC)c(-c2ccc(Br)cc2)n(C)c1C,T/C,"dose: 20.0 mg/kg/injection, schedule: Q01DX009 (ip), vehicle: distilled water + Tween-80",155 % of control
